# Legend:
# [1] = tested on: estrogenic activity of 17-β-estradiol (E2); human estrogen receptor; test: Estrogenic activity, YES assay (recombinant yeast); format: cell-based, Saccharomyces cereviciae; details: E2 spiked
# [2] = tested on: aerobic spores (Bacillus subtilis); format: cell-based
# spiked organisms = test: Preliminary studies using PBS: ferrate with E-beam on spiked organisms; format: cell-based; details: ferrate 2 ppm or 4 ppm in combination with E-beam (6 kGy, 8 kGy and 12 kGy)
# [3] = tested on: male-specific coliphages (MS-2); format: cell-based, coliphage MS-2
# Salmonella Typhimurium = format: cell-based
# [4] = tested on: Escherichia coli (ATCC #25922); format: cell-based
# [5] = tested on: estrogenic activity of 17-β-estradiol (E2); human estrogen receptor (ER) α; test: Estrogenic activity, ZR-75 breast cancer cell ERE-Luc reporter assay; format: cell-based; details: E2 spiked
# Poliovirus Type 1 = format: cell-based, Poliovirus-1
# [6] = tested on: estrogenic activity of 17-β-estradiol (E2); human estrogen receptor; details: it has been shown; cited from earlier work
# [7] = Table 28, 50 ppm + E-Beam (8 kGy)
# [8] = Table 28, 100 ppm + E-Beam (8 kGy)
# [9] = Table 28, 200 ppm + E-Beam (8 kGy)
# [10] = Table 29, 50 ppm + E-Beam (8 kGy)
# [11] = Table 29, 100 ppm + E-Beam (8 kGy)
# [12] = Table 29, 200 ppm + E-Beam (8 kGy)
smiles,measurement,setting,value
"[O]=[Fe](=[O])([O-])[O-] [Ferrate, ferrate]","% Reduction in Estrogenic Activity, Solid Portion (n = 3)",[1]; [7],40%
same,"% Reduction in Estrogenic Activity, Solid Portion (n = 3)","[1]; Table 28, 50 ppm Ferrate",40%
same,"% Reduction in Estrogenic Activity, Solid Portion (n = 3)",[1]; [8],43%
same,"% Reduction in Estrogenic Activity, Solid Portion (n = 3)","[1]; Table 28, 100 ppm Ferrate",27%
same,"% Reduction in Estrogenic Activity, Solid Portion (n = 3)",[1]; [9],51%
same,"% Reduction in Estrogenic Activity, Solid Portion (n = 3)","[1]; Table 28, 200 ppm Ferrate",59%
same,"% Reduction in Estrogenic Activity, Solid Portion (n = 3)",[1]; [10],29%
same,"% Reduction in Estrogenic Activity, Solid Portion (n = 3)","[1]; Table 29, 50 ppm Ferrate",30%
same,"% Reduction in Estrogenic Activity, Solid Portion (n = 3)",[1]; [11],20%
same,"% Reduction in Estrogenic Activity, Solid Portion (n = 3)","[1]; Table 29, 100 ppm Ferrate",31%
same,"% Reduction in Estrogenic Activity, Solid Portion (n = 3)",[1]; [12],30%
same,"% Reduction in Estrogenic Activity, Solid Portion (n = 3)","[1]; Table 29, 200 ppm Ferrate",29%
same,log reduction of spore formers,[2],two to three
same,reduction of spore formers (in words),[2],slight reduction
same,inactivation (in words),spiked organisms,inactivated
same,inactivation (in words),[3],Complete inactivation
same,log reduction (approximated),Salmonella Typhimurium,around three
same,surviving bacterial colonies (detection limit),Salmonella Typhimurium,< 10 CFU/ml
same,surviving bacterial colonies (detection limit),[4],< 10 CFU/ml
same,"% Reduction in Estrogenic Activity, Liquid Portion (n = 3)","[5]; Table 28 (aerobically digested biosolids, inferred b252), 50 ppm Ferrate",84%
same,"% Reduction in Estrogenic Activity, Liquid Portion (n = 3)",[5]; [7],85%
same,"% Reduction in Estrogenic Activity, Liquid Portion (n = 3)",[5]; [8],90%
same,"% Reduction in Estrogenic Activity, Liquid Portion (n = 3)","[5]; Table 28, 100 ppm Ferrate",88%
same,"% Reduction in Estrogenic Activity, Liquid Portion (n = 3)",[5]; [9],81%
same,"% Reduction in Estrogenic Activity, Liquid Portion (n = 3)","[5]; Table 28, 200 ppm Ferrate",89%
same,"% Reduction in Estrogenic Activity, Liquid Portion (n = 3)","[5]; Table 29 (anaerobically digested biosolids, inferred b252), 50 ppm Ferrate",68%
same,"% Reduction in Estrogenic Activity, Liquid Portion (n = 3)",[5]; [10],71%
same,"% Reduction in Estrogenic Activity, Liquid Portion (n = 3)",[5]; [11],74%
same,"% Reduction in Estrogenic Activity, Liquid Portion (n = 3)","[5]; Table 29, 100 ppm Ferrate",73%
same,"% Reduction in Estrogenic Activity, Liquid Portion (n = 3)",[5]; [12],71%
same,"% Reduction in Estrogenic Activity, Liquid Portion (n = 3)","[5]; Table 29, 200 ppm Ferrate",72%
same,inactivation (in words),Poliovirus Type 1,complete elimination
CC/C(=C(\c1ccc(O)cc1)c1ccc(OCCN(C)C)cc1)c1ccccc1 [hydroxytamoxifen],response in the YES assay (in words),[6],partial agonistic (estrogenic) response
